Assays:
[1] = biological target: T1, E. coli TEM-1 β-lactamase (Escherichia coli, UniProt P62593); assay: Drug screening: E166Cf fluorescence in presence of bacterial β-lactamase culture; assay type: biochemical; set-up: key: −: Decline in fluorescence signal (presence of beta-lactam hydrolysis); +: No decline in fluorescence signal (absence of beta-lactam hydrolysis); conditions: E. coli TEM-1 culture, undiluted; antibiotic 1.0×10^−4 M; E166Cf 1.2×10^−7 M
T1 construct: made in house; host or cells: E. coli BL21(DE3); whole overnight culture used undiluted, not purified
T1 sequence (P62593 24-286 limits assumed): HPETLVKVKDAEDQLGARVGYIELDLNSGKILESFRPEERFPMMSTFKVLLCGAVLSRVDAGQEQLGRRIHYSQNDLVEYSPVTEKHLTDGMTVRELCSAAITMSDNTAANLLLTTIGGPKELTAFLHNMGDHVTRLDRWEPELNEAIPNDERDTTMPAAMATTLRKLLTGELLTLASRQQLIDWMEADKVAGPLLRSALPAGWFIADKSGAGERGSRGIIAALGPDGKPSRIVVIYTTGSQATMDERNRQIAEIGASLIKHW
Description: The use of the E166Cf enzyme in screening bacterial β-lactamases against various β-lactam antibiotics was investigated. The principle of our method is that when both E166Cf and bacterial β-lactamase are incubated with ‘β-lactamase-unstable’ antibiotics, the fluorescence of the E166Cf enzyme will be suppressed because of the greater catalytic efficiency of the bacterial enzyme. In contrast, when bacterial β-lactamases are screened against ‘β-lactamase-resistant’ antibiotics, the fluorescence of the E166Cf enzyme will be enhanced because of the poor hydrolytic activity of the bacterial enzyme. Thus, any β-lactam antibiotic that causes the labeled enzyme to increase its fluorescence intensity in the presence of bacterial β-lactamases can be used in clinical treatments.
The TEM-1 β-lactamase was expressed in E. coli. BL21(DE3). Preparation of the TEM-1 β-lactamase was performed as follows. A bacterial strain was streaked on an agar plate containing 100 μg/ml ampicillin, and the plate was incubated at 37° C. for 24 h. A single bacterial colony from the plate was inoculated into 100 ml of sterilized LB broth (28 g/l) which was then incubated at 37° C. with shaking at 280 rpm overnight. After overnight incubation, the bacterial culture was harvested and stored at −20° C.
Fluorescence measurements of the E166Cf enzyme in the presence of bacterial cultures and β-lactam antibiotics were performed on a FLUOstar microplate reader (BMG Labtechnologies) equipped with two sample injectors. Excitation and emission filters of 485 and 520 nm respectively were used. For B. cereus penPC β-lactamase, B. licheniformis penP β-lactamase and B. cereus β-lactamase II, the labeled enzymes were mixed with the bacterial cultures, and the mixtures were made up to 300 μl with 50 mM phosphate buffer (pH 7.0) in a 96-well microtiter plate (Corning Costar). For the purpose of comparison, B. subtilis cultures, which produced no β-lactamase, were set up as negative controls. For E. coli. TEM-1 β-lactamase, the labeled enzymes were mixed with the bacterial cultures without dilution. E. coli. cultures, which produced no β-lactamase, were set up as negative controls for comparison. The antibiotics were then added to the bacterial samples by the injectors.
The results from the time-resolved fluorescence measurements of the labeled enzyme (1.2×10^−7 M) in the presence of various bacterial cultures and β-lactam antibiotics (1.0×10^−4 M) are shown in FIGS. 23 to 26.

E166Cf enzyme = biological target: T2, E166Cf enzyme (Bacillus cereus, UniProt P00809, E185C); assay: Detection of β-lactam antibiotics in milk by E166Cf fluorescence; conditions: untreated milk; E166Cf 1.2×10^−7 M
T2 construct: made in house; host or cells: B. subtilis 1A304 (φ105MU331); then labelled chemically
T2 sequence (P00809 28-306 E185C): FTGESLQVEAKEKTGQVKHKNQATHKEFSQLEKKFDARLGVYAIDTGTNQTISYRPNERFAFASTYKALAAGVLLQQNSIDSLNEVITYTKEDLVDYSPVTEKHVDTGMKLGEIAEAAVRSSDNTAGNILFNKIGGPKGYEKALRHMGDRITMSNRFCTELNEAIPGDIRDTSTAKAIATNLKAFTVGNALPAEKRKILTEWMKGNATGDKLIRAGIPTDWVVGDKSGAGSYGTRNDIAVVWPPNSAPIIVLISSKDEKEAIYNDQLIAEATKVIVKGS
Description: Fluorescence measurements of the E166Cf enzyme in milk in the presence of penicillin G and ampicillin were performed on a FLUOstar microplate reader (BMG Labtechnologies) equipped with two sample injectors. Excitation and emission filters of 485 and 520 nm respectively were used. Milk (pasteurized and homogenized, Nestle Dairy Farm) was purchased at a local supermarket. The labeled enzyme was mixed with the milk sample in a 96-well microtiter plate (Corning Costar). The antibiotics were then added to the mixtures by the injectors.
FIGS. 21 and 22 show the results from the time-resolved fluorescence measurements of the labeled enzyme (1.2×10^−7 M) in untreated milk in the presence of various concentrations of penicillin G and ampicillin respectively.

[2] = biological target: T3, E166Cf (fluorescein-labeled E166C mutant of β-lactamase I) (Bacillus cereus, UniProt P00809, E185C); assay: Spectrophotometric substrate hydrolysis, steady-state kinetics; assay type: biochemical
T3 construct: made in house; host or cells: B. subtilis 1A304 (φ105MU331); then labelled chemically
T3 sequence (P00809 28-306 E185C): T2 sequence (P00809 28-306 E185C)
Description: (§1) The hydrolytic activities of the wild-type β-lactamase I, E166C and E166Cf mutants towards penicillin G, penicillin V and ampicillin (Sigma) were monitored by the spectrophotometric method. The spectrophotometric measurements were performed on a Perkin Elmer Lambda Bio20 UV/Vis spectrometer. Substrate hydrolysis was monitored at a fixed wavelength: 235 nm for ampicillin, 232 nm for penicillin G and penicillin V. The initial rate of substrate hydrolysis occurring within 5 min was determined in duplicate at each of 6 different substrate concentrations in 50 mM potassium phosphate buffer (pH 7.0) at 20° C. The initial rates determined were then treated as described in Reference 5 to calculate the Michaelis constants (Km) and turnover numbers (kcat) using non-linear regression analysis (equation 1):
(§2) [formula] where v is the initial rate of substrate hydrolysis, Vmax the maximum rate of reaction, [S] the initial substrate concentration, Km the Michaelis constant and kcat=Vmax/[Enzyme].
(§3) The measured steady-state kinetic parameters for hydrolysis of penicillin G, penicillin V and ampicillin by the wild-type β-lactamase I, E166C and E166Cf mutants are summarized in Table 1.
At high substrate concentration (1.0×10^−5 and 1.0×10^−4 M), the penicillin substrates rapidly occupy the active sites to form the ES complexes, thus switching on the fluorescence of the fluorescein labels instantaneously. […] This can be verified by the fact that the ‘plateau time’ (8 and 22 min for 1.0×10^−5 and 1.0×10^−4 M penicillin G respectively) is consistent with the ‘substrate hydrolysis time’ determined by spectrophotometric assays (7 and 20 min for 1.0×10^−5 and 1.0×10^−4 M penicillin G respectively). When most of the penicillin substrates have been hydrolyzed to carboxylic acids, the fluorescence signal of the labeled enzyme will decline subsequently.

wild-type β-lactamase I = biological target: T4, wild-type β-lactamase I (Bacillus cereus, UniProt P00809); assay: as above; assay type: biochemical; conditions: 50 mM potassium phosphate buffer pH 7.0, 20° C.
T4 construct: made in house; host or cells: B. subtilis 1A304 (φ105MU331)
T4 sequence (P00809 28-306): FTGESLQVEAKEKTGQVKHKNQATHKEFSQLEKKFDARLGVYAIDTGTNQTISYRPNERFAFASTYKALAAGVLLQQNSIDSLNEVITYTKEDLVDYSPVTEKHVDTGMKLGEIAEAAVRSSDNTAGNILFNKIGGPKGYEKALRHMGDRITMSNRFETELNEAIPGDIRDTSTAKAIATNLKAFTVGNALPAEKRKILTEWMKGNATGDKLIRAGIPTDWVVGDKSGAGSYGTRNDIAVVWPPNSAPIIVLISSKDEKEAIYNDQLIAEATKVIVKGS
Description: as §1, §2, §3

[3] = biological target: T5, E166C mutant of β-lactamase I (Bacillus cereus, UniProt P00809, E185C); assay: as above; assay type: biochemical; conditions: 50 mM potassium phosphate buffer pH 7.0, 20° C.
T5 construct: made in house; host or cells: B. subtilis 1A304 (φ105MU331)
T5 sequence (P00809 28-306 E185C): T2 sequence (P00809 28-306 E185C)
Description: as §1, §2, §3

[4] = E166Cf, 50 mM potassium phosphate buffer pH 7.0, 20° C.

With CC1(C)S[C@@H]2[C@H](NC(=O)Cc3ccccc3)C(=O)N2[C@H]1C(=O)O [Penicillin G, penicillin G] the “fluorescence signal of E166Cf (beta-lactam hydrolysis)” value [1] was “−”, the “lowest concentration detected by the labeled enzyme” value (E166Cf enzyme) was 10^−6 M and the “substrate hydrolysis time determined by spectrophotometric assays” value ([2]; 1.0×10^−4 M antibiotic) was 20 min. The “substrate hydrolysis time determined by spectrophotometric assays” value ([2]; 1.0×10^−5 M antibiotic) was 7 min, the Km [2, 4] was 213 ± 11 µM and the kcat [2, 4] was 5.28 ± 0.09 s⁻¹. For the same compound, the Km (wild-type β-lactamase I) was 48 ± 3 µM, the kcat (wild-type β-lactamase I) was 2612 ± 320 s⁻¹ and the Km [3] was 72 ± 3 µM. It also gave a kcat [3] of 2.07 ± 0.02 s⁻¹.
